Consider 13 compounds from US20260035364A1, “BICYCLIC TETRAHYDROTHIAZEPINE DERIVATIVES” (Hoffmann-La Roche Inc., priority 2022, published 2026).

One test has as its system primary human T-cells. In words: T-cell proliferation assay (CellTiter-Glo). It counts as cell-based. Particulars: Homo sapiens, T-cell, 120 h, CD3 condition; for Emax: 5 days, 20 μM reference compound A1 = 100%, read-out: Emax proliferation (% activation); for EC50: proliferation after 5 days, CellTiter-Glo, read-out: Tcell Proliferation CD3 EC50. The gist of the method:
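Expanded primary human T-cells (100k/well) on plates coated with CD3 antibody or PBS only, given a 5- or 6-point dose response (top 20 or 10 μM final, 3.333-fold steps, 0.2% DMSO). ATP measured by CellTiter-Glo 2.0 luminescence after 5 days. Normalized to DMSO and 20 μM reference A1 (100%); EC50 and Emax reported for CD3 conditions.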

The next test addresses DGKzeta (Homo sapiens, UniProt Q13574). Briefly: In vitro DGK inhibition assay (ADP-Glo, liposomes), DGKzeta. More on the design: hDGKzeta(1-928)-N-His; His (N); made in house; host or cells: Sf21 insect cells (baculovirus). As to conditions: 2 nM DGK ζ, 50 μM ATP, 125 uM DLG in liposomes, 1 hour reaction. It is filed as biochemical. The procedure, abridged:
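DGKζ (2 nM) phosphorylated DLG presented in DLG/PS/PC liposomes (final DLG 125 μM) with 50 μM ATP for 1 hour. ADP formed was read by ADP-Glo luminescence. Compounds were tested as 11-point 1:3 dose responses in 2% final DMSO.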

A further test deals with DGKalpha (Homo sapiens, UniProt P23743). In words: In vitro DGK inhibition assay (ADP-Glo, liposomes), DGKalpha. As to conditions: 4 nM DGK α, 25 μM ATP, 125 uM DLG in liposomes, 1 hour reaction. Details: hDGKalpha(1-735)-N-His; His (N); made in house; host or cells: Sf21 insect cells (baculovirus). It is filed as biochemical. The gist of the method: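 Full-length human DGKα (4 nM) or DGKζ (2 nM) from Sf21 cells, with DLG substrate at 125 uM in PS/PC liposomes and ATP at 25 μM (α) or 50 μM (ζ); 1 h reaction. ADP formed read by ADP-Glo luminescence; compounds 11-point, 1:3 dilutions from 10 mM, 2% DMSO final.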
Chain of DGKalpha (P23743 whole entry): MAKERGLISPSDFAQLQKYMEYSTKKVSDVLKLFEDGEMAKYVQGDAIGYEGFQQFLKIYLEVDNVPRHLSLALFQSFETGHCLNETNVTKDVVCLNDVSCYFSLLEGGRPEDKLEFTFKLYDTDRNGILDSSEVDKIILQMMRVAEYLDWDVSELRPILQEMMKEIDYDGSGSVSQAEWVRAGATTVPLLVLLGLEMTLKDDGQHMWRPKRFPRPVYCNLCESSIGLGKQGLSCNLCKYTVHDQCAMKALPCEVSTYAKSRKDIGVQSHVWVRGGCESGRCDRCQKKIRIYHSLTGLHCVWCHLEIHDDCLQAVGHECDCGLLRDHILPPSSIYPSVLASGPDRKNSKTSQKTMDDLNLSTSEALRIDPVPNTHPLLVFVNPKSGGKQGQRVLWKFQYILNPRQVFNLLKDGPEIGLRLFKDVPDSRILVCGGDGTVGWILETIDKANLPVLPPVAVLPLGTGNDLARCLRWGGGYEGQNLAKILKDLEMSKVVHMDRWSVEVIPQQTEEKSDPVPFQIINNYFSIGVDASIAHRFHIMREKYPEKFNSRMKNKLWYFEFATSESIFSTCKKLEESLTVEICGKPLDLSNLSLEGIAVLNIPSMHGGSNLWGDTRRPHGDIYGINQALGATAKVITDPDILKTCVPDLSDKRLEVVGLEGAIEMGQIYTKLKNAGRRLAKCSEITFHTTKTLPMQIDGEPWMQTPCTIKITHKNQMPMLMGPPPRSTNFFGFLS

Chain of DGKzeta (Q13574 whole entry): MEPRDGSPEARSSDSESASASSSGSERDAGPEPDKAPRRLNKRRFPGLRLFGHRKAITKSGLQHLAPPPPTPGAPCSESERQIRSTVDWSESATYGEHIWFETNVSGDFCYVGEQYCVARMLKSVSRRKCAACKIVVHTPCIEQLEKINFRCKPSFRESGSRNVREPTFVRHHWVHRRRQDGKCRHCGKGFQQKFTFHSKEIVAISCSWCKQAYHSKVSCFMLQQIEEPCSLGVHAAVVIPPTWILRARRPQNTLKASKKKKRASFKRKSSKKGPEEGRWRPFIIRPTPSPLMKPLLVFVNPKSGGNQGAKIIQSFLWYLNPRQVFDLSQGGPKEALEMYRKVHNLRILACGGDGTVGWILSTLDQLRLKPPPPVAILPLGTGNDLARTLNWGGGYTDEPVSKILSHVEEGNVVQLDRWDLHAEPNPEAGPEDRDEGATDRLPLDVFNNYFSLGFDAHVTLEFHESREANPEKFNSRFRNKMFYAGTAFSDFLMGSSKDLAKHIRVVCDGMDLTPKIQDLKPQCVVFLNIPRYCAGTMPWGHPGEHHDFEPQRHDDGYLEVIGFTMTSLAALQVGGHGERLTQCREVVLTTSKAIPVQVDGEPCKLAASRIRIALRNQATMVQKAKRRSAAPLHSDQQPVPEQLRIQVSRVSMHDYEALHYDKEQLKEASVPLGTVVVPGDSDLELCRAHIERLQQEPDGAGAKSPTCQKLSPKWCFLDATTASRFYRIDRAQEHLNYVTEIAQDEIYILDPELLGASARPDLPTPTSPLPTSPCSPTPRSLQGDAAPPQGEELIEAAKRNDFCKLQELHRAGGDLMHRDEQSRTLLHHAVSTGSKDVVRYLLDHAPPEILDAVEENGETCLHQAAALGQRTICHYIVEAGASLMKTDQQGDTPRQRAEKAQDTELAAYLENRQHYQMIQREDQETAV

In the case of `CC(C)(c1nnc(-c2ccc3c(c2)N(Cc2ccc(-c4ccc(C(F)(F)F)cc4)nc2)C(=O)[C@@H](N)CS3(=O)=O)o1)S(C)(=O)=O` [Example 57, (3R)-3-amino-7-[5-(1-methyl-1-methylsulfonyl-ethyl)-1,3,4-oxadiazol-2-yl]-1,1-dioxo-5-[[6-[4-(trifluoromethyl)phenyl]-3-pyridyl]methyl]-2,3-dihydro-1λ6,5-benzothiazepin-4-one], the Emax with primary human T-cells is 65%. Besides, in the test on primary human T-cells, the EC50 turned out to be 1110 nM. Moreover, the figures for the IC50 against DGKzeta and at DGKalpha were 8950 nM and 27.2 µM, respectively.
Take `CC1(c2nnc(-c3ccc4c(c3)N(Cc3ccc(Oc5ccccc5)cc3)C(=O)[C@@H](N)CS4(=O)=O)o2)CCCS1(=O)=O` (stereo partly drawn) [Example 58, (3R)-3-amino-7-[5-(2-methyl-1,1-dioxo-thiolan-2-yl)-1,3,4-oxadiazol-2-yl]-1,1-dioxo-5-[(4-phenoxyphenyl)methyl]-2,3-dihydro-1λ6,5-benzothiazepin-4-one]: in the test on primary human T-cells, the Emax stood at 112%. In addition, in the test on primary human T-cells, the EC50 amounted to 1100 nM. Further, the IC50 is 586 nM at DGKzeta and 3.38 µM against DGKalpha.
As for `CC(C)(c1nc(-c2cc3c(cc2F)S(=O)(=O)C[C@H](N)C(=O)N3Cc2ccc(OCc3nc(C(F)(F)F)no3)cc2)no1)S(C)(=O)=O` [Example 59, (3R)-3-amino-8-fluoro-7-[5-(1-methyl-1-methylsulfonyl-ethyl)-1,2,4-oxadiazol-3-yl]-1,1-dioxo-5-[[4-[[3-(trifluoromethyl)-1,2,4-oxadiazol-5-yl]methoxy]phenyl]methyl]-2,3-dihydro-1λ6,5-benzothiazepin-4-one], in the test on primary human T-cells, the Emax was 185%. In the test on primary human T-cells, the EC50 worked out at 1120 nM. In addition, the IC50 against DGKzeta is 310 nM; against DGKalpha, 1.85 µM.
In the case of `CC(C)(c1nnc(-c2ccc3c(c2)N(Cc2ccc(Oc4cccc(Br)c4)cc2)C(=O)[C@@H](N)CS3(=O)=O)o1)S(C)(=O)=O` [Example 60, (3R)-3-amino-5-[[4-(3-bromophenoxy)phenyl]methyl]-7-[5-(1-methyl-1-methylsulfonyl-ethyl)-1,3,4-oxadiazol-2-yl]-1,1-dioxo-2,3-dihydro-1λ6,5-benzothiazepin-4-one], the Emax in the test with primary human T-cells stood at 119%. For the same compound, the EC50 in the test on primary human T-cells came to 660 nM. In addition, the concentration for half-maximal inhibition (IC50) on DGKzeta was 609 nM; against DGKalpha, 3.8 µM.
Take `CC(C)(c1nnc(-c2ccc3c(c2)N(Cc2ccc(Oc4ccccc4)cc2)C(=O)[C@@H](N)CS3(=O)=O)o1)S(=O)(=O)C1CC1` [Example 61, (3R)-3-amino-7-[5-(1-cyclopropylsulfonyl-1-methyl-ethyl)-1,3,4-oxadiazol-2-yl]-1,1-dioxo-5-[(4-phenoxyphenyl)methyl]-2,3-dihydro-1λ6,5-benzothiazepin-4-one]: in the test with primary human T-cells, the Emax turned out to be 58% and the EC50 amounted to 4560 nM. Besides, the IC50 on DGKzeta stood at 768 nM. This compound also came in with an IC50 on DGKalpha of 4.77 µM.
`COCC(C)(C)Oc1ccc(CN2C(=O)[C@@H](N)CS(=O)(=O)c3cc(F)c(-c4noc(C(C)(C)S(C)(=O)=O)n4)cc32)cc1` [Example 62, (3R)-3-amino-8-fluoro-5-[[4-(2-methoxy-1,1-dimethyl-ethoxy)phenyl]methyl]-7-[5-(1-methyl-1-methylsulfonyl-ethyl)-1,2,4-oxadiazol-3-yl]-1,1-dioxo-2,3-dihydro-benzothiazepin-4-one]: the Emax with primary human T-cells was found to be 188%. Besides, the EC50 in the test on primary human T-cells stood at 1390 nM. In addition, the IC50 at DGKzeta was 269 nM; at DGKalpha, 1.07 µM.
With `COc1ccc(-c2ccc(CN3C(=O)[C@@H](N)CS(=O)(=O)c4ccc(-c5noc(C(C)(C)S(C)(=O)=O)n5)cc43)cc2)cc1` [Example 63, (3R)-3-amino-5-[[4-(4-methoxyphenyl)phenyl]methyl]-7-[5-(1-methyl-1-methylsulfonyl-ethyl)-1,2,4-oxadiazol-3-yl]-1,1-dioxo-2,3-dihydro-1λ6,5-benzothiazepin-4-one], in the test with primary human T-cells, the Emax was determined as 98%. In the test with primary human T-cells, the EC50 amounted to 92 nM. In addition, the IC50 came to 2330 nM against DGKzeta and 58.9 µM at DGKalpha.
As to `CC(C)(c1nnc(-c2ccc3c(c2)N(Cc2ccc(OC(F)(F)F)cc2)C(=O)[C@@H](N)CS3(=O)=O)o1)S(C)(=O)=O` [Example 64, (3R)-3-amino-7-[5-(1-methyl-1-methylsulfonyl-ethyl)-1,3,4-oxadiazol-2-yl]-1,1-dioxo-5-[[4-(trifluoromethoxy)phenyl]methyl]-2,3-dihydro-126,5-benzothiazepin-4-one], in the test with primary human T-cells, the Emax worked out at 98% and the EC50 came to 6170 nM. This compound also registered an IC50 against DGKzeta of 1920 nM. Besides, on DGKalpha, it took 3.26 µM to reach half-maximal inhibition (IC50).
With `CN(C)S(=O)(=O)C(C)(C)c1nnc(-c2ccc3c(c2)N(Cc2ccc(-c4ccc(C(F)(F)F)cc4)cc2)C(=O)[C@@H](N)CS3(=O)=O)o1` [Example 65, 2-[5-[(3R)-3-amino-1,1,4-trioxo-5-[[4-[4-(trifluoromethyl)phenyl]phenyl]methyl]-2,3-dihydro-1λ6,5-benzothiazepin-7-yl]-1,3,4-oxadiazol-2-yl]-N,N-dimethyl-propane-2-sulfonamide], in the test with primary human T-cells, the Emax was 155% and the EC50 was 2620 nM. Moreover, at DGKzeta, half-maximal inhibition (IC50) required 8370 nM. Moreover, the IC50 on DGKalpha is more than 62.5 µM.
The matching figures for `CS(=O)(=O)C1(c2nnc(-c3ccc4c(c3)N(Cc3ccc(Oc5ccccc5)cc3)C(=O)[C@@H](N)CS4(=O)=O)o2)CC1` [Example 66, (3R)-3-amino-7-[5-(1-methylsulfonylcyclopropyl)-1,3,4-oxadiazol-2-yl]-1,1-dioxo-5-[(4-phenoxyphenyl)methyl]-2,3-dihydro-1λ6,5-benzothiazepin-4-one]: 144%, 2170 nM, 1160 nM and 10.7 µM.
Take `CC(C)(c1nnc(-c2ccc3c(c2)N(Cc2ccc(-c4ccc(C(F)(F)F)cc4)cc2)C(=O)[C@@H](N)CS3(=O)=O)o1)S(=O)(=O)N1CCCC1` [Example 67, (3R)-3-amino-7-[5-(1-methyl-1-pyrrolidin-1-ylsulfonyl-ethyl)-1,3,4-oxadiazol-2-yl]-1,1-dioxo-5-[[4-[4-(trifluoromethyl)phenyl]phenyl]methyl]-2,3-dihydro-1λ6,5-benzothiazepin-4-one]: in the test on primary human T-cells, the Emax is 142% and the EC50 came out at 5510 nM. The IC50 against DGKzeta was 49700 nM. For the same compound, at DGKalpha, the IC50 is more than 62.5 µM.
As for `CS(=O)(=O)C1(c2nnc(-c3ccc4c(c3)N(Cc3ccc(Oc5ccccc5)cc3)C(=O)[C@@H](N)CS4(=O)=O)o2)CCC1` [Example 68, (3R)-3-amino-7-[5-(1-methylsulfonylcyclobutyl)-1,3,4-oxadiazol-2-yl]-1,1-dioxo-5-[(4-phenoxyphenyl)methyl]-2,3-dihydro-1λ6,5-benzothiazepin-4-one], in the test with primary human T-cells, the Emax amounted to 83% and the EC50 came to 2290 nM. The IC50 against DGKzeta worked out at 3500 nM. This compound registered an IC50 at DGKalpha of more than 62.5 µM.
Regarding `CC(C)(c1nnc(-c2ccc3c(c2)N(Cc2ccc(-c4ccc(OC(F)(F)F)cn4)cc2)C(=O)[C@@H](N)CS3(=O)=O)o1)S(C)(=O)=O` [Example 69, (3R)-3-amino-1,1-diketo-7-[5-(1-mesyl-1-methyl-ethyl)-1,3,4-oxadiazol-2-yl]-5-[4-[5-(trifluoromethoxy)-2-pyridyl]benzyl]-2,3-dihydro-1λ6,5-benzothiazepin-4-one], in the test on primary human T-cells, the Emax was found to be 91% and the EC50 came out at 31 nM. Moreover, the IC50 on DGKzeta was 826 nM. This compound also returned an IC50 at DGKalpha of 0.175 µM.
